Laboratory results from PMC3615411 (Cancer research, 2008).

Biological target: E2F4 (Mus musculus, UniProt Q8R0K9)
Test: EMSA of E2F4 DNA binding with compound added to cell extract
Type: biochemical
Details: NIH-3T3 protein extract; 20 µM screen; STAT3 EMSA as negative control

E2F4, sequence (Q8R0K9 2-410): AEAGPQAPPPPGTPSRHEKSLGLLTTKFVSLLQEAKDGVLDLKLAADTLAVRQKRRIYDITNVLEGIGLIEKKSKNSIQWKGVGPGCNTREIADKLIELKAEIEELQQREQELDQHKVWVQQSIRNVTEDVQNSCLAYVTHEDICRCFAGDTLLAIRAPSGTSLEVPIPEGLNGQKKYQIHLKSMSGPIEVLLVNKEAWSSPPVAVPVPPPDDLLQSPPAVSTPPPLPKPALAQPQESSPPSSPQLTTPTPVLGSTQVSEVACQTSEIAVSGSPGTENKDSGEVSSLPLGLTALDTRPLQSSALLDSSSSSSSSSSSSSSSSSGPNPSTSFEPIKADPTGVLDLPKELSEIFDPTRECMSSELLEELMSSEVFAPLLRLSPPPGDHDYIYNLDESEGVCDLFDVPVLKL

CCOc1ccc(C(Nc2ccccn2)c2ccc3ccc(C)nc3c2O)cc1C (stereo not shown) [HLM006474]
inhibition at 20 μM: Incubation of these compounds with NIH-3T3 protein extracts identified ten compounds with potential E2F4-inhibitory activity
